Two compounds from patent US20250223306A1, “TEAD INHIBITORS AND METHODS OF USE” (Sporos BioDiscovery, Inc., priority 2022, published 2025) can be followed below.

One test deals with MSTO-211H cells. In words: MSTO-211H proliferation and cell viability assay (CTG). In kind it is cell-based. Conditions: Homo sapiens, MSTO-211H cell line, 144 hours. On the procedure: MSTO-211H cells were trypsinised, counted and plated at the specified cell density in 200 μl of growth media in 96 well flat bottom tissue culture treated plates. The plated cells were incubated overnight at 37° C., 5% CO2 before being treated with compounds in triplicate for each assay point. 50 μl of the serially diluted compound was added to each well giving a final DMSO concentration of 0.5% per well and a total volume of 250 μl per well. The treated cells were incubated for 144 hours (6 days) at 37° C., 5% CO2. Following compound treatment, the remaining viable cells were detected using the Promega CellTiter-Glo 2.0 assay as follows: 150 μl of media was removed from each of the wells to be assayed and 100 μl of room temperature CellTiter-Glo 2.0 reagent was added. The plate was placed on an orbital shaker at 500 rpm at room temperature for 2 minutes, and then incubated without shaking for a further 10 minutes at room temperature. 150 μl of cell lysate was removed from each well and dispensed into a single well of a white opaque 96 well plate. Luminescence at 545 nm is read using a BMG CLARIOstar plate reader. The luminescent signal was directly proportional to number of viable cells, the percent of viable cells relative to the DMSO control was then calculated for each assay point. Percent viability relative to DMSO control was plotted against compound concentration and a curve fitted with non-linear regression in GraphPad Prism software. IC50 values were calculated using GraphPad Prism software as follows: For Relative IC50 values a non-constrained four-parameter logistic curve fit was used (Sigmoidal, 4PL, X is concentration). For Absolute IC50 values the baseline was constrained to Y=0 (Absolute IC50, X is concentration). Area Under the Curve (AUC): Prism computes area-under-the-curve by the trapezoidal method. The analysis sees a fitted curve as simply a series of connected XY points. Prism simply computes the area under the “curve” defined by connecting the points by straight lines. The units of the AUC are the units of the Y axis times units of the X axis.

A further test addresses TEAD1 (Homo sapiens, UniProt P28347). Nature of the test: TEAD thermal shift assay (TSA). In kind it is binding.
In the next test the target is TEAD3 (Homo sapiens, UniProt Q99594). In words: TEAD thermal shift assay (TSA). It is filed as binding.
Sequence of TEAD3 (Q99594 whole entry): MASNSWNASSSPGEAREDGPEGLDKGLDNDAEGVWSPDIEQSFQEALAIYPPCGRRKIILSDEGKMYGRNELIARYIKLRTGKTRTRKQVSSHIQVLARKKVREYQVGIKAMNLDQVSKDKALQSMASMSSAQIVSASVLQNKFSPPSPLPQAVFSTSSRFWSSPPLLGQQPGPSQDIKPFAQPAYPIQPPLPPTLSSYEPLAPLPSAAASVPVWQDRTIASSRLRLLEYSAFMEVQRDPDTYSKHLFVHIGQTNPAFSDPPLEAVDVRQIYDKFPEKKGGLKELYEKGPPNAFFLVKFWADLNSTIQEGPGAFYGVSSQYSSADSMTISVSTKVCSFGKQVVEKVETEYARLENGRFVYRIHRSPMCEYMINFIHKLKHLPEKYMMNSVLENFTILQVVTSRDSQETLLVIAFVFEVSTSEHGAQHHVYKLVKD
For the next test, the target named is TEAD4 (Homo sapiens, UniProt Q15561). Nature of the test: TEAD thermal shift assay (TSA). It is filed as binding.
Sequence of TEAD4 (Q15561 whole entry): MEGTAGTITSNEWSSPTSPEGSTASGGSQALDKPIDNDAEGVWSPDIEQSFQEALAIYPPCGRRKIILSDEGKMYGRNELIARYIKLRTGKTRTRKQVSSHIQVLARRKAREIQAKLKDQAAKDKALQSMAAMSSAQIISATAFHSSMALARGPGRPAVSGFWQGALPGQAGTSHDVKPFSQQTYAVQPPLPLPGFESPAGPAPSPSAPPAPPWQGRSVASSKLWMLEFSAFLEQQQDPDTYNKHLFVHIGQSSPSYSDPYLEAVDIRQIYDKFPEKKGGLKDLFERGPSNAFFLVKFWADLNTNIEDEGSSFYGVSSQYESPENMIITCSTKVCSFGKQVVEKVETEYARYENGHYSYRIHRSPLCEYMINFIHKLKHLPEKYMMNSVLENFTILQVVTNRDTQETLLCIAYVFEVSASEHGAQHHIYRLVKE
The next test addresses TEAD2 (Homo sapiens, UniProt Q15562). In words: TEAD thermal shift assay (TSA). It is filed as binding.
A further test relates to Mero14 cells. In words: Mero14 proliferation and cell viability assay (CTG). In kind it is cell-based. As to conditions: Mero14 cell line, 144 hours. The method, then:
Mero14 cells were trypsinised, counted and plated at 400 cells/well in 200 μl of growth media in 96 well flat bottom tissue culture treated plates. The plated cells were incubated overnight at 37° C., 5% CO2 before being treated with compounds in triplicate for each assay point. 50 μl of the serially diluted compound was added to each well giving a final DMSO concentration of 0.5% per well and a total volume of 250 μl per well. The treated cells were incubated for 144 hours (6 days) at 37° C., 5% CO2. Following compound treatment the remaining viable cells were detected using the Promega CellTiter-Glo 2.0 assay as follows: 150 μl of media was removed from each of the wells to be assayed and 100 μl of room temperature CellTiter-Glo 2.0 reagent was added. The plate was placed on an orbital shaker at 500 rpm at room temperature for 2 minutes, and then incubated without shaking for a further 10 minutes at room temperature. 150 μl of cell lysate was removed from each well and dispensed into a single well of a white opaque 96 well plate.
Luminescence at 545 nm was read using a BMG CLARIOstar plate reader. The luminescent signal was directly proportional to number of viable cells, the percent of viable cells relative to the DMSO control was then calculated for each assay point. Percent viability relative to DMSO control is plotted against compound concentration and a curve fitted with non-linear regression in GraphPad Prism software. IC50 values were calculated using GraphPad Prism software as follows: For Relative IC50 values, a non-constrained four-parameter logistic curve fit was used (Sigmoidal, 4PL, X is concentration). For Absolute IC50 values the baseline was constrained to Y=0 (Absolute IC50, X is concentration). Area Under the Curve (AUC): Prism computed area-under-the-curve by the trapezoidal method. The analysis sees a fitted curve as simply a series of connected XY points. Prism simply computes the area under the “curve” defined by connecting the points by straight lines. The units of the AUC are the units of the Y axis times units of the X axis.

Where [1] appears, read: ratio of protein to compound 1:1.
The mark [2] stands for this setting: ratio of protein to compound 1:3.

Sequence of TEAD1 (P28347 whole entry): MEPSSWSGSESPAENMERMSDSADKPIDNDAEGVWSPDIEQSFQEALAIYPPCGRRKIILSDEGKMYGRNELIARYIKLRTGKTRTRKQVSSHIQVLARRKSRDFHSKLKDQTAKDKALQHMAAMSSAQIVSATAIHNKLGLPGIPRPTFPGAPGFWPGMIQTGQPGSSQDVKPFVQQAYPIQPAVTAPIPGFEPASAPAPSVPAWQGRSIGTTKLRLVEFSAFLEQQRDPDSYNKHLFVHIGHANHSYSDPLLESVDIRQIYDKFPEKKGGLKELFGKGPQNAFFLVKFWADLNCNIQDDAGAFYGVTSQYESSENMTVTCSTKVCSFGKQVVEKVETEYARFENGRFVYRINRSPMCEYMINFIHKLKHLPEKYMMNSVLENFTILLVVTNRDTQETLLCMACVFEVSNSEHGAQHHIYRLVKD
Sequence of TEAD2 (Q15562 whole entry): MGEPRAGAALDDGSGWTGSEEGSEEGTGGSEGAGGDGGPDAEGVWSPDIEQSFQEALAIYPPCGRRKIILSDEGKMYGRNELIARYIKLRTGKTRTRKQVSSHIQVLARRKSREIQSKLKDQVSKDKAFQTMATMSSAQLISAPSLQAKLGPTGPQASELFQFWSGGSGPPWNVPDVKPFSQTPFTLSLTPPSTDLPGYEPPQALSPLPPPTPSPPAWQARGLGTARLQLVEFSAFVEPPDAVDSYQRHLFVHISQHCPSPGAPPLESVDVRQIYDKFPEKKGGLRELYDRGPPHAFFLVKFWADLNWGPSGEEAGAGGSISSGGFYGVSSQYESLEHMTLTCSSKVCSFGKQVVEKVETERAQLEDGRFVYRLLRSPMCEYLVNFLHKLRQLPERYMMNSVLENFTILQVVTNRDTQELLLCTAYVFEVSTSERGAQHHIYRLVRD

The EC50 is the concentration needed to bring the measured effect to its halfway point. The low end stands for a more potent agent, the high end for a less potent agent. Consider `COc1cc(C2=CCC(C(F)(F)F)CC2)c2ncc(C(=O)N[C@H](C)c3ncco3)cc2c1` (stereo partly drawn) [Compound 109, 6-methoxy-N—((R)-1-(oxazol-2-yl)ethyl)-8-(4-(trifluoromethyl)cyclohex-1-en-1-yl)quinoline-3-carboxamide], for which the EC50 in the test with MSTO-211H cells and in the test with Mero14 cells was less than 200 nM throughout. For the same compound, the “TEAD1 ΔTm” value was found to be 13 °C at TEAD1 (setting [1]) and 14 °C at TEAD1 (setting [2]). For the same compound, the “TEAD3 ΔTm” value at TEAD3 (setting [1]) is 2 °C; on TEAD3 (setting [2]), 3 °C. Besides, the “TEAD4 ΔTm” value at TEAD4 (setting [1]) was 1 °C; on TEAD4 (setting [2]), 2 °C. The “TEAD2 ΔTm” value on TEAD2 (setting [1]) amounted to 3 °C; at TEAD2 (setting [2]), 2 °C.

As for `COc1cc(C2=CCC(C(F)(F)F)CC2)c2ncc(C(=O)N[C@H](C)CO)cc2c1` (stereo partly drawn) [Compound 110, N—((R)-1-hydroxypropan-2-yl)-6-methoxy-8-(4-(trifluoromethyl)cyclohex-1-en-1-yl)quinoline-3-carboxamide], the EC50 in the test with MSTO-211H cells and with Mero14 cells was less than 200 nM each time. Further, the results for the “TEAD1 ΔTm” value at TEAD1 (setting [1]) and at TEAD1 (setting [2]) were 14 °C and 16 °C, respectively. The “TEAD3 ΔTm” value on TEAD3 (setting [1]) stood at 2 °C; at TEAD3 (setting [2]) it was 3 °C. Further, the “TEAD4 ΔTm” value on TEAD4 (setting [1]) came out at 2 °C; on TEAD4 (setting [2]), 3 °C. Besides, the “TEAD2 ΔTm” value on TEAD2 (setting [1]) came out at 2 °C; at TEAD2 (setting [2]), 3 °C.
